Tests used:
total Aβ peptides = assay: Levels of total Aβ peptides, SHSYSY-APP cell-based assay (sandwich ELISA); settings: concentration response, percent solvent control
Text: FIG. 8: Representative concentration response curves of Compound 1 using our primary and orthogonal medium throughput SHSYSY-APP cell-based screening assays (10). Compounds are first screened two times in triplicate in our UCSD sandwich Aβ42 ELISA on sequential days and the average of the two assays must be within 3-fold of each other before being entered into the CDD relational database. The UCSD sandwich ELISA assay can easily handle 20 compounds per week. Compounds with Aβ42 IC50 values <100 nM continue through the testing funnel. The Z′ score and the % CV for the UCSD Aβ42 sandwich ELISA assay are 0.8 and 4, respectively. For the Meso Scale triplex assay the Z′ scores are 0.7, 0.9 and 0.6 Aβ42, Aβ40 and Aβ38, respectively and the % CV's are 7, 2 and 1 for Aβ42, Aβ40 and Aβ38, respectively. Aβ total peptides are measured using a sandwich ELISA.
The figure depicts percent solvent control (Aβ40/Aβ42/AβTotal) (left axis) and percent solvent control (Aβ38) again log of, concentration of Compound 1.

[1] = Plasma concentrations (pharmacokinetics) in male Sprague Dawley rats, iv and po; format: in vivo; settings: rat
Method: FIG. 4. Time course of administration of Compound 1 to male Sprague Dawley rats: iv (1 mg/kg) or po (5 mg/kg). […] Clearance was 89 mL/hr/kg. T1/2 (iv) was 5.9 hrs.
Efficacy Studies in Rat. Plasma Concentrations of Compound 1 in Male Sprague Dawley Rats. FIG. 4 depicts the time course of administration of Compound 1 to male Sprague Dawley rats: iv (1 mg/kg) or [p (5 mg/kg). […] Clearance was 89 mL/hr/kg. T1/2 (iv) was 5.9 hrs.

Aβ40 levels = assay: Effects of 9 days treatment on rat plasma and CSF Aβ40 levels; format: in vivo, male Sprague-Dawley rat; settings: for reduction in CSF Aβ40 levels: rat CSF; for reduction in plasma Aβ40 levels: rat plasma
Method: FIG. 6: The effects of Compound 1 after 9-days treatment on Aβ40 levels in male Sprague-Dawley rat plasma A) where the reduction in plasma levels was 61%, 89% and 95%, for dosages of 5, 25, and 50 mg/kg, respectively and in male Sprague-Dawley rat CSF B) where the reduction in CSF levels was 47%, 75% and 85%, for dosages of 5, 25, and 50 mg/kg, respectively.
Effects of Compound 1 (9 Days Treatment) on Rat Plasma and CSF Aβ40 Levels. The effects of Compound 1 after 9-days treatment on Aβ40 levels in rat plasma and CSF are depicted in FIG. 6A (plasma) and FIG. 6B (CSF). For FIG. 6A, the reduction in plasma levels was 61%, 89% and 95%, for dosages of 5, 25, and 50 mg/kg, respectively. For FIG. 6B, the reduction in CSF levels was 47%, 75% and 85%, for dosages of 5, 25, and 50 mg/kg, respectively.

Notch processing = Notch processing in transfected H4-APP751 cells (Western blot, Myc antibody, NICD); format: cell-based, human; settings: H4-APP751 cells transfected with the NAE construct, different concentrations, 24 hrs
Text: Cells were harvested 48 hrs post transfection and applied to Western blotting analysis. Myc antibody was utilized to assess the NAED and NICD tagged with Myc on their N-termini. β-Actin was utilized as the loading control.
Cells were harvested 48 hrs post transfection and subjected to Western blotting analysis. Myc antibody was utilized to assess the NδED and NICD tagged with Myc on their N-termini.
Stable H4 human neuroglioma cells over-expressing human APP751, or H4-APP751 cells, were transfected with the NAE construct, and then treated with different concentrations SGSM Compound 1 (Lanes 1-6) or DAPT (Lanes 7-10) for another 24 hrs and are shown in FIG. 9. Cells were harvested 48 hrs post transfection and applied to Western blotting analysis. Myc antibody was utilized to assess the NAED and NICD tagged with Myc on their N-termini β-Actin was utilized as the loading control.
Stably-transfected H4 human neuroglioma cells over-expressing human APP751 (H4-APP751) cells, were transfected with the Notch NδED construct, and then treated with vehicle, or different doses of GSMs (40 nM, 200 nM, 1000 nM, and 5000 nM) for 24 hrs. Cells were harvested 48 hrs post transfection and subjected to Western blotting analysis.

Aβ42 levels = assay: Effects of 9 days treatment on rat plasma and CSF Aβ42 levels; format: in vivo, male Sprague-Dawley rat; settings: for reduction in CSF Aβ42 levels: rat CSF; for reduction in plasma Aβ42 levels: rat plasma
Method: FIG. 5: The effects of Compound 1 after 9-days treatment on Aβ42 levels in male Sprague-Dawley rat plasma A) where the reduction in plasma levels was 81%, 93% and 97%, for dosages of 5, 25, and 50 mg/kg, respectively and male Sprague-Dawley rat CSF B) where the reduction in CSF levels was 43%, 73% and 86%, for dosages of 5, 25, and 50 mg/kg, respectively.
Effects of Compound 1 (9 Days Treatment) on Rat Plasma and CSF Aβ42 Levels. The effects of Compound 1 after 9-days treatment on Aβ42 levels in rat plasma and CSF are depicted in FIG. 5A (plasma) and FIG. 5B (CSF). For FIG. 5A, the reduction in plasma levels was 81%, 93% and 97%, for dosages of 5, 25, and 50 mg/kg, respectively. For FIG. 5B, the reduction in CSF levels was 43%, 73% and 86%, for dosages of 5, 25, and 50 mg/kg, respectively.

[2] = tested on: APP-CTF (C-terminal fragment); assay: Accumulation of APP-CTFs in brain extracts (immunoblot, anti-APP carboxyl-terminal antibody); format: in vivo; settings: administered doses of 5, 25 or 50 mg/kg
Method: FIG. 7: Protein blots of indicated proteins from subjects administered vehicle and Compound 1 at doses of 5, 25 and 50 mg/kg.
Brain extracts which were prepared using 1.0% SDS run on SDS-PAGE, transferred to PVDF membranes and immunoblots were performed using an anti-APP carboxyl-terminal antibody.

COc1nc(-c2cc(C)c(N[C@@H](C)c3ccc(F)cc3)nn2)ccc1-n1cnc(C)c1 [Compound 1, (S)—N-(1-(4-fluorophenyl)ethyl)-6-(6-methoxy-5-(4-methyl-1H-imidazol-1-yl)pyridin-2-yl)-4-methylpyridazin-3-amine]
levels of total Aβ peptides (total Aβ peptides): does not decrease levels of total Aβ peptides | bioavailability ([1]; iv (1 mg/kg) or po (5 mg/kg)): 60.3% | clearance ([1]; iv (1 mg/kg) or po (5 mg/kg)): 1.48 mL/min/kg | half-life ([1]; iv (1 mg/kg), read-out: T1/2 (iv) (converted)): 5.9 h | reduction in CSF Aβ40 levels (Aβ40 levels; 5 mg/kg): 47% | reduction in CSF Aβ40 levels (Aβ40 levels; 25 mg/kg): 75% | reduction in CSF Aβ40 levels (Aβ40 levels; 50 mg/kg): 85% | reduction in plasma Aβ40 levels (Aβ40 levels; 5 mg/kg): 61% | reduction in plasma Aβ40 levels (Aβ40 levels; 25 mg/kg): 89% | reduction in plasma Aβ40 levels (Aβ40 levels; 50 mg/kg): 95% | Notch processing (NICD, Western blot) (Notch processing): did not inhibit Notch processing | reduction in CSF Aβ42 levels (Aβ42 levels; 5 mg/kg): 43% | reduction in CSF Aβ42 levels (Aβ42 levels; 25 mg/kg): 73% | reduction in CSF Aβ42 levels (Aβ42 levels; 50 mg/kg): 86% | reduction in plasma Aβ42 levels (Aβ42 levels; 5 mg/kg): 81% | reduction in plasma Aβ42 levels (Aβ42 levels; 25 mg/kg): 93% | reduction in plasma Aβ42 levels (Aβ42 levels; 50 mg/kg): 97% | accumulation of APP-CTF (C-terminal fragment) [2]: does not cause accumulation of APP-CTF

— patent publication US10472346B2, “Potent gamma-secretase modulators” (The General Hospital Coporation, priority 2014, dated 2019)
